The target of data set [1] is DNA ligase enzyme (NAD+-dependent DNA ligase) (Streptococcus pneumoniae serotype 4, UniProt Q97QT2). In words: DNA ligase AMP release assay (luciferase readout). It is filed as biochemical. To be noted: purified enzyme from S. pneumoniae. On the procedure:
Activity against DNA ligase enzyme was measured using purified enzyme from S. pneumoniae. An AMP release assay was used to assess activity of compounds against the enzyme. AMP, released as a result of the ligation of oligonucleotides, is converted to ATP, which is then measured using luciferase enzyme. The concentration of compound which inhibited 50% of the ligation activity of the enzyme (IC50) was determined.

Data set [2] deals with Streptococcus pyogenes ATCC 19615. In words: MIC, broth microdilution (CLSI), S. pyogenes. It is filed as cell-based. On the procedure: (§1) The compounds of Formulas 1-VIII were evaluated as inhibitors of NAD+-dependent DNA ligase inhibitors. Their antimicrobial activity was evaluated against bacteria using the broth microdilution method as described by Clinical Laboratory Standards Institute (formerly NCCLS). Activity was assessed against the following bacterial strains: Staphylococcus aureus ATCC 29213, Streptococcus pneumoniae ATCC 49619, Escherichia coli ATCC 25922, E. coli CGSC 5633 (ToIC mutant), Haemophilus influenzae ATCC 49766, Streptococcus pyogenes ATCC 19615, Moraxella catterhalis ATCC 25238, Enterococcus faecalis ATCC 29212. The lowest concentration of compound which inhibited visual growth of each bacterium, the minimum inhibitory concentration (MIC), was determined.
A general note: Dilution methods test growth across graded concentrations, often in twofold steps.

For data set [3], the system named is E. coli CGSC 5633 (ToIC mutant). In words: MIC, broth microdilution (CLSI), E. coli CGSC 5633. On the set-up: unit not given beside the values. Type of data set: cell-based, Escherichia coli. The method, then:
as §1

The test system of data set [4] is Streptococcus pneumoniae ATCC 49619. The data set is described as follows: MIC, broth microdilution (CLSI), S. pneumoniae. Type of data set: cell-based. The method, then: as §1
Data set [5] can be described thus: Acute toxicity, Alamar blue cell viability, NIH 3T3. It is filed as cell-based. Conditions: mouse. The method, then: (§2) Acute toxicity was assessed against two mammalian cell lines, HepG2 (human hepatocyte) and NIH 3T3 (mouse fibroblast). Cell viability was measured by an in vitro assay using Alamar blue. The concentration of compound which inhibited 50% of the cell growth (LC50) was determined.
(Alamar Blue is a resazurin reagent that responds to reducing activity.)

Data set [6] relates to Escherichia coli ATCC 25922. In words: MIC, broth microdilution (CLSI), E. coli ATCC 25922. It is filed as cell-based. On the procedure: as §1
Data set [7] concerns Staphylococcus aureus ATCC 29213. In words: MIC, broth microdilution (CLSI), S. aureus. It is filed as cell-based. To be noted: lowest concentration inhibiting visual growth. The method, then:
as §1

Data set [8] in a line: Acute toxicity, Alamar blue cell viability, HepG2. It is filed as cell-based. Conditions: human. The method, then:
as §2

The subject of data set [9] is Moraxella catterhalis ATCC 25238. In words: MIC, broth microdilution (CLSI), M. catarrhalis. Type of data set: cell-based. The method, then:
as §1

Data set [10] concerns Enterococcus faecalis ATCC 29212. The data set is described as follows: MIC, broth microdilution (CLSI), E. faecalis. It is filed as cell-based. The arrangement: unit not given here. On the procedure:
as §1

Data set [11] has as its system Haemophilus influenzae ATCC 49766. The data set is described as follows: MIC, broth microdilution (CLSI), H. influenzae. Type of data set: cell-based. The arrangement: unit not given beside the values. The method, then:
as §1

Chain of DNA ligase enzyme (NAD+-dependent DNA ligase) (Q97QT2 whole entry): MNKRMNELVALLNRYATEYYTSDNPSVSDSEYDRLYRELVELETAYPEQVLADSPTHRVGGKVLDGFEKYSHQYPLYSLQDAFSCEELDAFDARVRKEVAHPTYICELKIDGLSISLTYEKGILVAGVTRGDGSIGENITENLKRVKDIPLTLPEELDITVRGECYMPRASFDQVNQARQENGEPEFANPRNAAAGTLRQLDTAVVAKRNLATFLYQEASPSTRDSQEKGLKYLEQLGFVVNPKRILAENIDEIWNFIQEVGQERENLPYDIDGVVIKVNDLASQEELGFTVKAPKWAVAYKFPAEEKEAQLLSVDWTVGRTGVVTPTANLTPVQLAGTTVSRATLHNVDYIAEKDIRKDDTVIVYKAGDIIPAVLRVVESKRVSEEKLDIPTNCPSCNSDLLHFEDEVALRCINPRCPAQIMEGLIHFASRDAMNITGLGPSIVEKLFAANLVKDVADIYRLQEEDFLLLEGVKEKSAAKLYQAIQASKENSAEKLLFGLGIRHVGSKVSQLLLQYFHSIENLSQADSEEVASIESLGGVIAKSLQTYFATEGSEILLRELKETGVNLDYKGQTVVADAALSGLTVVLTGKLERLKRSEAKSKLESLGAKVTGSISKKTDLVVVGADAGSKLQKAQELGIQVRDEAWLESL

What is called IC50 is the point on the concentration scale where inhibition reaches its midpoint. By CC50 is commonly meant the concentration at which the toxic effect on the cells reaches its halfway point. Consider `Cc1c(N(C)C2CCCCC2)nc2nc(N)nc(N)c2c1C` [II-e], for which the IC50 in data set [1] stood at 79.1 µM. The “MIC S. pyogenes” value in [2] lay in the range of 2 to 8. In addition, the “MIC E. coli CGSC 5633” value in data set [3] is given as 0.125. Also, in [4], the “MIC S. pneumoniae” value is 4. For the same compound, the CC50 in data set [5] stood at 10.9 µM; in [8] it was 19 µM. In addition, the “MIC E. coli ATCC 25922” value in data set [6] came out at 64. The “MIC S. aureus ATCC 29213” value in [7] is listed as 32. Moreover, the “MIC M. catarrhalis” value in data set [9] fell in the range of 4 to 8. Further, the “MIC E. faecalis” value in data set [10] is 1.
`Cc1cc(Nc2ccc3c(c2)OCCCO3)nc2nc(N)nc(N)c12` [III-p] yielded an IC50 in data set [1] of 11.4 µM. Further, the “MIC E. coli CGSC 5633” value in [3] is reported as 0.125. Moreover, in data set [4], the “MIC S. pneumoniae” value came out at 4. Further, the figures for the CC50 in data set [5] and in data set [8] were 15.6 µM and 20 µM, respectively. For the same compound, in data set [6], the “MIC E. coli ATCC 25922” value turned out to be 64. The “MIC S. aureus ATCC 29213” value in data set [7] was 128. The “MIC M. catarrhalis” value in data set [9] is 16. Also, the “MIC E. faecalis” value in data set [10] is on record as 0.5.
Regarding `COc1cc(CN(C)c2cc(C)c3c(N)nc(N)nc3n2)cc(OC)c1OC` [IV-a], the midpoint of inhibition in data set [1], the IC50, lay at 15.2 µM. In [2], the “MIC S. pyogenes” value amounted to 64. Moreover, the “MIC E. coli CGSC 5633” value in [3] was below 0.125. Besides, the “MIC S. pneumoniae” value in data set [4] amounted to 4. For the same compound, the “MIC E. coli ATCC 25922” value in data set [6] amounted to 15. Also, in data set [7], the “MIC S. aureus ATCC 29213” value turned out to be 64. Also, the “MIC H. influenzae” value in [11] is recorded as 64. Also, the “MIC M. catarrhalis” value in [9] is reported as 16. Also, the “MIC E. faecalis” value in data set [10] was 2.
In the case of `COc1cc(CN(C)c2nc3nc(N)nc(N)c3c(C)c2C2CCCC2)cc(OC)c1` [II-h], in data set [2], the “MIC S. pyogenes” value was 1. The “MIC E. coli CGSC 5633” value in data set [3] was below 0.125. In addition, the “MIC S. pneumoniae” value in data set [4] is 0.5. Besides, the cytotoxic concentration (CC50) in data set [5] was found to be 3.26 µM; in data set [8], 17.5 µM. The “MIC E. coli ATCC 25922” value in data set [6] is 32. In data set [7], the “MIC S. aureus ATCC 29213” value amounted to 4. Moreover, in data set [11], the “MIC H. influenzae” value was 4. Besides, the “MIC M. catarrhalis” value in data set [9] came to 1. In data set [10], the “MIC E. faecalis” value is given as below 0.125.
On to `CCCCc1c(NCc2ccc(F)c(F)c2)nc2nc(N)nc(N)c2c1C` [II-d], for which the “MIC S. pyogenes” value in data set [2] amounted to 2. For the same compound, the “MIC E. coli CGSC 5633” value in data set [3] is reported as below 0.125. Also, in data set [4], the “MIC S. pneumoniae” value is reported as 1. The CC50 in [5] is 5.16 µM; in [8] it was 17.2 µM. Also, the “MIC E. coli ATCC 25922” value in data set [6] amounted to 32. In addition, in data set [7], the “MIC S. aureus ATCC 29213” value is on record as 4. Further, the “MIC H. influenzae” value in data set [11] amounted to 16. For the same compound, the “MIC M. catarrhalis” value in [9] is 2. In data set [10], the “MIC E. faecalis” value turned out to be 2.
Consider `Cc1cc(NCc2cc(C(F)(F)F)cc(C(F)(F)F)c2)nc2nc(N)nc(N)c12` [III-d], for which the “MIC S. pyogenes” value in [2] was 2. Besides, the “MIC E. coli CGSC 5633” value in data set [3] is given as 1. For the same compound, the “MIC S. pneumoniae” value in [4] was 2. The CC50 in [5] came to 7.72 µM; in data set [8] it was 19.5 µM. Moreover, the “MIC E. coli ATCC 25922” value in data set [6] worked out at 16. In [7], the “MIC S. aureus ATCC 29213” value was found to be 16. Further, in data set [11], the “MIC H. influenzae” value is listed as 16. Moreover, in data set [9], the “MIC M. catarrhalis” value was found to be 4. Moreover, the “MIC E. faecalis” value in data set [10] stood at 1.
Take `COc1cc(CN(C)c2cc(C)c3c(N)nc(N)nc3n2)cc(OC)c1` [IV-c]: in data set [2], the “MIC S. pyogenes” value amounted to 8. The “MIC E. coli CGSC 5633” value in data set [3] is below 0.125. The “MIC S. pneumoniae” value in data set [4] was 0.5. Further, the results for the 50% cytotoxic concentration (CC50) in data set [5] and in data set [8] were 14.6 µM and 37.4 µM, respectively. In addition, the “MIC E. coli ATCC 25922” value in [6] came out at 16. Moreover, the “MIC S. aureus ATCC 29213” value in data set [7] amounted to 32. The “MIC H. influenzae” value in data set [11] is 32. Also, in [9], the “MIC M. catarrhalis” value is reported as 1. Further, the “MIC E. faecalis” value in data set [10] is 0.5.
Consider `Cc1cc(NCc2ccc(C(F)(F)F)cc2)nc2nc(N)nc(N)c12` [III-c], for which the “MIC S. pyogenes” value in data set [2] was 4. Further, in [3], the “MIC E. coli CGSC 5633” value is 0.25. Moreover, the “MIC S. pneumoniae” value in data set [4] is 4. The CC50 was 11.2 µM in [5] and 22.8 µM in data set [8]. The “MIC E. coli ATCC 25922” value in data set [6] turned out to be 16. Also, the “MIC S. aureus ATCC 29213” value in data set [7] amounted to 16. The “MIC H. influenzae” value in data set [11] was determined as 16. Moreover, the “MIC M. catarrhalis” value in data set [9] came out at 8. Also, in data set [10], the “MIC E. faecalis” value worked out at 4.

Values taken from US20070082920A1, “NAD+-dependent DNA ligase inhibitors” (priority 2005, published 2007).
